Consider 4 molecules from US9993462B2, “Hydantoin derivative-containing pharmaceutical composition” (Chugai Seiyaku Kabushiki Kaisha, priority 2014, dated 2018).

One series addresses T1, human PTH1R (Homo sapiens, UniProt Q03431).
T1 construct: expressed in transfected cells; host or cells: HKRK-B7 (LLC-PK1 porcine kidney cells stably expressing human PTH1R)
T1 sequence (Q03431 27-593): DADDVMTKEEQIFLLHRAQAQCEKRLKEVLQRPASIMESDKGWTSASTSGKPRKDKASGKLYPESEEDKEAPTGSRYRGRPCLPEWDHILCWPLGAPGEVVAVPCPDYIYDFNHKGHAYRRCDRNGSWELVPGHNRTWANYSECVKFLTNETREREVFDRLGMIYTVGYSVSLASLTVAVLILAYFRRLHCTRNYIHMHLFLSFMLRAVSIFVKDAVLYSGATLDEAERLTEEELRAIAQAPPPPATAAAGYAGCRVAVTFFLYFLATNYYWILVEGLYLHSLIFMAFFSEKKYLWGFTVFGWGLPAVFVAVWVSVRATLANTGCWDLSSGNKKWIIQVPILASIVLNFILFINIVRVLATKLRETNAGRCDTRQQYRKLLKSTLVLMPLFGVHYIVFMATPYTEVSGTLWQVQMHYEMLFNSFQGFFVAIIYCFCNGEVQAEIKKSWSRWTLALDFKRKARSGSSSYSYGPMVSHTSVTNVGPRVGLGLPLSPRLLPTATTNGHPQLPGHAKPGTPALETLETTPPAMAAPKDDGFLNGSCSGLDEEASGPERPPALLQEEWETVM
Nature of the series: In vitro cAMP signal activity via the human PTH1R (HKRK-B7 cells). Type of series: cell-based. The conditions noted are these: concentration at 20% cAMP signaling activity, human PTH(1-34) at 100 nM = 100%. The protocol: Human PTH(1-34) and calcitonin were purchased from Peptide Institute, Inc. (Osaka, Japan), dissolved in 10 mM acetic acid to 1 mM and stored in a −80° C. freezer.
Cells were cultured in Dulbecco's modified Eagle's medium (DMEM) supplemented with 10% fetal bovine serum (Hyclone), 100 units/ml penicillin G and 100 μg/ml streptomycin sulfate (Invitrogen Corp) at 37° C. in a humidified atmosphere containing 5% CO2.
cAMP signal transduction analysis utilized LLC-PK1 cells not expressing the PTH1R, and HKRK-B7 cells, that is, LLC-PK1 cells overexpressing the human PTH1R at 9.5×10^5 receptors/cell (Takasu et al., J. Bone. Miner. Res. 14:11-20, 1999).
HKRK-B7 or LLC-PK1 cells were seeded into a 96-well plate at 1×10^5 cells/well and incubated overnight. On the following day, 50 μl of cAMP assay buffer (DMEM, 2 mM IBMX, 0.2 mg/ml bovine serum albumin, 35 mM Hepes-NaOH, pH 7.4) containing human PTH(1-34) or each compound was added and the plate was placed in a 37° C. incubator. The cells were incubated for 20 minutes. After removing the medium, the cells were washed with 100 μl of cAMP assay buffer once. The plate was placed on dry ice powder to freeze the cells and then removed from the dry ice. The cells were lysed with 40 μl of 50 mM HCl and frozen again on dry ice. The amount of intracellular cAMP produced was measured using a commercially available cAMP EIA kit (Biotrack cAMP EIA system, GE health care).
Analyses were performed using a variable gradient S-shaped dose-response curve equation.

A further series addresses T2, rat PTH1R (Rattus norvegicus, UniProt P25961).
T2 construct: expressed in transfected cells
T2 sequence (P25961 27-591): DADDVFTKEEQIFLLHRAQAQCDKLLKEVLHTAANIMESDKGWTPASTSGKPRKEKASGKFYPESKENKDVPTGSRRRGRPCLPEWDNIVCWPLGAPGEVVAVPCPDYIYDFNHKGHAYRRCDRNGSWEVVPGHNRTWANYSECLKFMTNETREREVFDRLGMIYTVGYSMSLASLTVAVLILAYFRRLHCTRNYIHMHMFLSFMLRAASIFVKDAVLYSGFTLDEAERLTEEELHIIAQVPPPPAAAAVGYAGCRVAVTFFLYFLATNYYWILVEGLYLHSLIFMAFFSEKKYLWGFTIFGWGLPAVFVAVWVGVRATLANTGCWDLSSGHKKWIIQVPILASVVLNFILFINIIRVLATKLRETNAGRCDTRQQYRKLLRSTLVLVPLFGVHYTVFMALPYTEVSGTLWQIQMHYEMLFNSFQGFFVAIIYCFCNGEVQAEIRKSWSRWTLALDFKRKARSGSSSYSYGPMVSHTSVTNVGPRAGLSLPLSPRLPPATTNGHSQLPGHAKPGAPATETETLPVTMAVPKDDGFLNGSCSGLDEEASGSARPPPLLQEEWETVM
Nature of the series: In vitro cAMP signaling activity via the rat PTH1R (LLC-PK46_RATO_PTH1R cells). Type of series: cell-based. The conditions noted are these: LLC-PK46_RATO_PTH1R cells overexpressing rat PTH1R. An excerpt:
Instead of HKRK-B7 cells, LLC-PK46_RATO_PTH1R cells overexpressing rat PTH1R, which were established at Chugai Pharmaceutical, were used to take measurements in a similar manner to Reference Test Example 1.

A further series deals with TPTX rat. Put plainly: Calcemic action in the TPTX rat model. The conditions noted are these: TPTX rats, 30 mg/kg oral; for change of serum Ca concentration from the Pre-value (in words): up to 24 hours after administration. In kind it is in vivo. The protocol:
Four-week old female Crl:CD(SD) rats were obtained from Charles River Japan (Atsugi Breeding Center), and were acclimated to standard laboratory conditions of 20-26° C. and 35-75% humidity for one week. The rats were given tap water and were fed ad libitum with standard rodent chow (CE-2) (CLEA Japan, Inc.) containing 1.1% calcium, 1.0% phosphoric acid, and 250 IU/100 g of vitamin D3.
TPTX was performed on five-week old rats. Some of the individuals were subjected to sham operation (Sham). Individuals whose serum Ca concentration was less than 8 mg/dL on four days after the operation were selected for use as TPTX rats. On five days after the operation, the rats were assigned to eight TPTX groups and one Sham group (n=5, each group) based on their body weight and serum Ca concentration measured on four days after the operation. The solvent alone was orally administered to the Sham group and the TPTX-Vehicle group at a volume of 10 mL/kg. Each test article was orally administered individually to each TPTX test article group by dissolving it in a solvent at a dose of 30 mg/10 mL/kg. The solvent composition was 10% dimethylsulfoxide (Wako Pure Chemical Industries, Ltd.), 10% Cremophor EL (Sigma-Aldrich Japan LLC), 20% hydroxypropyl-β-cyclodextrin (Nihon Shokuhin Kako Co., Ltd.), glycine (Wako Pure Chemical Industries, Ltd.); and the pH was adjusted to 10. Immediately before administration of each sample, Pre-blood collection was performed, and blood collection was carried out at 2, 6, 10, and 24 hours after administration to measure the serum Ca concentration. Each blood collection was carried out from the jugular vein under isoflurane inhalation anesthesia.
Serum Ca measurement: Serum obtained by centrifugation from the collected blood was measured by using an automatic analyzer TBA-120FR (Toshiba Medical Systems Corporation).
For statistical analysis of the animal studies, data are shown as mean±standard error (SE). Statistical analysis were performed by unpaired test of the SAS Preclinical Package (Ver. 5.00.010720, SAS Institute Japan, Tokyo, Japan).

The next series concerns rat hepatocyte. Put plainly: Metabolic stability using rat hepatocyte. Type of series: in vitro ADME. The protocol: Liver cells were prepared from the liver of rats (SD, female) by a collagenase perfusion method. A compound of the Reference Examples or a Comparative Example was added, and this was incubated at 37° C. for a specified amount of time, followed by addition of a reaction-stopping solution. The concentration of the parent compound at each reaction time was measured using LC/MS/MS, and inherent clearance (μL/10^6 cells/min) was calculated from the slope of the reaction time versus residual rate.
• Cell concentration: 1×10^6 cells/mL • Compound concentration: 1 μM • Medium: Williams' medium E • Reaction time: 0, 15, 30, 60, 120, and 240 minutes • Reaction-stopping solution: acetonitrile/2-propanol (4/6, v/v)

A word on the EC20: it is the point of the concentration-response curve where the effect stands at 20%. Lower therefore signals an effect from little substance. Take `Cc1cc(N2C(=O)CNC2=O)ccc1CCS(=O)(=O)N1CCC2(CC1)N=C(c1cccc(OC(F)(F)F)c1)NC2=O` [Comparative Example 1, reference compound]: the EC20 at human PTH1R turned out to be 1.5 µM. At rat PTH1R, the concentration for an effect of 20% (EC20) came to 0.8 µM. In the series on TPTX rat, the “achievement of the therapeutic target range of serum Ca concentration of 7.6 to 8.8 mg/dL” value is “could not be achieved” and the “change of serum Ca concentration from the Pre-value (in words)” value is reported as “smaller positive changes from the Pre-value”.
In the case of `Cc1cc(N2C(=O)NC(=O)C23CCCC3)cc(C)c1CCS(=O)(=O)N1CCC2(CC1)N=C(c1ccc(OC(F)(F)F)cc1)NC2=O` [Compound 8, 1-(3,5-dimethyl-4-(2-((4-oxo-2-(4-(trifluoromethoxy)phenyl)-1,3,8-triazaspiro[4.5]deca-1-en-8-yl)sulfonyl)ethyl)phenyl)-1,3-diazaspiro[4.4]nonane-2,4-dione], on rat PTH1R, the concentration for an effect of 20% (EC20) was 0.4 µM. In the series with rat hepatocyte, the “rat hepatocyte metabolic stability compared to Comparative Examples 1, 2, 3, 5, and 6 (in words)” value is recorded as “increased”. Besides, in the series on TPTX rat, the “achievement of the therapeutic target range of serum Ca concentration of 7.6 to 8.8 mg/dL” value is listed as “achieved the therapeutic target range” and the “change of serum Ca concentration from the Pre-value (in words)” value is recorded as “large positive changes from the Pre-value”.
`Cc1cc(N2C(=O)NC(=O)C23COC3)cc(C)c1CCS(=O)(=O)N1CCC2(CC1)N=C(c1ccc(OC(F)(F)F)cc1)NC2=O` [Compound 10, 5-(3,5-dimethyl-4-(2-((4-oxo-2-(4-(trifluoromethoxy)phenyl)-1,3,8-triazaspiro[4.5]deca-1-en-8-yl)sulfonyl)ethyl)phenyl)-2-oxa-5,7-diazaspiro[3.4]octane-6,8-dione]: the concentration for an effect of 20% (EC20) on human PTH1R was found to be 5.0 µM; on rat PTH1R, 3.0 µM. For the same molecule, the “rat hepatocyte metabolic stability compared to Comparative Examples 1, 2, 3, 5, and 6 (in words)” value in the series on rat hepatocyte was “increased”.
The corresponding values for `Cc1cc(N2C(=O)NC(=O)C23CC3)cc(C)c1CCS(=O)(=O)N1CCC2(CC1)N=C(c1ccc(OC(F)(F)F)cc1)NC2=O` [Compound 11, 4-(3,5-dimethyl-4-(2-((4-oxo-2-(4-(trifluoromethoxy)phenyl)-1,3,8-triazaspiro[4.5]deca-1-en-8-yl)sulfonyl)ethyl)phenyl)-4,6-diazaspiro[2.4]heptane-5,7-dione] are 1.5 µM, 0.8 µM and “increased”.
